Where two headings read alike, the source gives them in different places.
How the values were obtained:
[1] = tested on: HBV replication in HepG2 2.2.15 cells; assay: Antiviral activity: reduction of extracellular HBV DNA in HepG2 2.2.15 cells; type: cell-based, hepatitis B virus; details: read-out: ED50 values (concentration resulting in 50% reduction of HBV DNA in the medium of the cells)
Experimental: The antiviral efficacy of the compounds of at least one embodiment was investigated on HepG2 2.2.15 cells, a human hepatoblastoma cell line which has the replication-competent HBV genome stably integrated therein and produces infectious progeny viruses in a productive manner (Sells et al., Proc Natl Acad Sci USA 1987, 84: 1005-1009).
The above cells were cultured under standardized conditions as specified by Korba and Gerin, and the amount of extracellular viral DNA was determined (Korba et al., Antiviral Res 1992, 19: 55-70).
Following passaging, the HepG2 2.2.15 cells were seeded at a density of about 60% in 12-well plates and cultured to confluence in 10% FBS Dulbecco MEM. Thereafter, the medium was changed to 2% FBS, and the cells were cultured for another 24 hours.
After another change of medium, the cells were treated with varying concentrations of compounds according to at least one embodiment. Every 24 hours the compounds were re-added together with the medium. […]
Following treatment of the culture supernatants with proteinase K, the extracellular viral DNA was amplified by means of PCR using the following primers (forward: 5′-CTCCAGTTCAGGAACAGTAAACCC-3′; reverse: 5′-TTGTGAGCTCAGAAAGGCCTTGTAAGTTGGCG-3′. The PCR products were separated on 1% agarose, stained with ethidium bromide and quantified using a Fluor-S™ Multimager (Biorad).
For calibration of the PCR reaction, serial dilutions of the pUC19 HBV and pTHBV plasmids with known genome equivalents (GE) were used, resulting in a lower detection limit of about 10^3 GE and a linearity between 10^3 and 10^5 GE.

[2] = tested on: HBV replication; details: 5-modified β-L-cytosine nucleosides; compares with compounds with non-modified bases; cited from earlier work
[3] = biological target: T1, HBV DNA polymerase (Hepatitis B virus genotype D subtype ayw, UniProt P03156); assay: Inhibition of endogenous HBV DNA polymerase activity (3H-dCTP incorporation); type: biochemical; details: nucleoside triphosphates; purified virus particles from patient serum; 0.7 μM dCTP; two-hour incubation at 37° C.; read-out: IC50 (50% inhibition of the HBV DNA polymerase activity)
T1 construct: 30 μl of polymerase batch included about 2-4×10^8 purified virus particles (lysed beforehand); from tissue; host or cells: Serum of patients infected with hepatitis B virus (Charité, Berlin); virus particles purified through a saccharose gradient and lysed
T1 sequence (P03156 whole entry): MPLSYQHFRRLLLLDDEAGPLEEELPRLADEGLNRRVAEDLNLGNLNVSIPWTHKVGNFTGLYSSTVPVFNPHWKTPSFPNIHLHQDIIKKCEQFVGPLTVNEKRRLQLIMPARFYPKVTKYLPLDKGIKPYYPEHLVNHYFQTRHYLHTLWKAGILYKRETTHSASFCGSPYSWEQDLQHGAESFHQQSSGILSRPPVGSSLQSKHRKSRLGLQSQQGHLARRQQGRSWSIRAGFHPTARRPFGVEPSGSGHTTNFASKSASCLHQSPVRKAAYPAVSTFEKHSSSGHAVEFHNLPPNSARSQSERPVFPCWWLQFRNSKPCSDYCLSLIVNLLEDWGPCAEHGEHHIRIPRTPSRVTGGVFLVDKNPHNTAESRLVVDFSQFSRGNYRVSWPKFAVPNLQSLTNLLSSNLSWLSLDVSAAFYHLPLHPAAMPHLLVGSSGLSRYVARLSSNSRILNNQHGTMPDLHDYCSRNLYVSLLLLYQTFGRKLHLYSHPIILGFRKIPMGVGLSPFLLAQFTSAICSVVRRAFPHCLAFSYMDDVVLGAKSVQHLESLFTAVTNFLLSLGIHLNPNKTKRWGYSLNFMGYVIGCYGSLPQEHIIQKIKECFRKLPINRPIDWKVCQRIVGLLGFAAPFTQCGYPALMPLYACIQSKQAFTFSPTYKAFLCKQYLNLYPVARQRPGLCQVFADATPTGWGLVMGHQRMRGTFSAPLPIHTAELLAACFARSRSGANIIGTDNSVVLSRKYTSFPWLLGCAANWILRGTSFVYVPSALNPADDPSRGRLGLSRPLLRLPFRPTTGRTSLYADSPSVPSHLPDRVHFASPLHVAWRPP
Experimental: Synthesis and purification of the triphosphates of β-L-5-methylcytidine nucleosides were effected according to well-known methods (Yoshikawa et al., Tetradedron Lett 1967, 50: 5065-5068; Hoard et Ott, J Am Chem Soc 1965, 87: 1785-1788).
To determine the endogenous HBV DNA polymerase activity, about 60 ml of serum from patients with hepatitis B virus infections from Charité, Berlin (>10^7 HBV particles/ml), was centrifuged at 3000 rpm, followed by sedimentation of the virus particles at 25,000 g, 60 min, taking up in 7 ml of TKM buffer (50 mM Tris-HCl, pH 7.5, 50 mM KCl, 5 mM MgCl2), and centrifugation through a saccharose gradient (0.3 M, 0.6 M, 0.9 M saccharose in 10 ml of TKM buffer each time) at 25,000 g for 20 hours. The purified virus sediment was suspended in 400 μl of TKM using ultrasound, divided in aliquots and frozen at −80° C. (Davies et al., Antiviral Res 1996, 30: 133-145).
30 μl of polymerase batch included about 2-4×10^8 purified virus particles (lysed beforehand in 6% β-mercaptoethanol, 10% Igepal for 15 min at room temperature), 42 mM Tris-HCl, (pH 7.5), 34 mM MgCl2, 340 mM KCl, 22 mM β-mercaptoethanol, 0.4% Igepal, 70 μM TTP, dATP, dGTP and 1 μCi ^3H-dCTP (=0.7 μM dCTP) (Matthes et al., Antimicrob Agents & Chemoth 1991, 35: 1254-1257) and varying concentrations of β-L-5-methylcytidine nucleoside triphosphates.
Following a two-hour incubation at 37° C., 20 μl of each batch was placed on paper filter, washed 5 times with 5% trichloroacetic acid and 0.1% Na pyrophosphate, and the ^3H-dCTP incorporated in the HBV DNA was subsequently measured in a Liquid Scintillation Counter.
Using the concentration-dependent inhibition curves of HBV DNA synthesis, the concentration of β-L-5-methylcytidine nucleoside triphosphates resulting in 50% inhibition of the HBV DNA polymerase activity was determined. The IC50 values are illustrated in Table 2.

[4] = tested on: HepG2 cells; assay: Cytotoxicity: inhibition of proliferation of HepG2 cells; type: cell-based, human; details: Hep G2 cells, Dulbecco MEM, incubated for two days
Experimental: (§1) To this end, established cells of a human myeloid leukemia (HL-60) in RPMI medium, and the above-mentioned HepG2 cells in Dulbecco MEM, respectively, were incubated for two days using varying concentrations of compounds, and the proliferation rate of the cells was subsequently determined. The data was used to determine the concentration of compounds resulting in 50% inhibition of proliferation (CD50).

[5] = tested on: HL-60 cells; assay: Cytotoxicity: inhibition of proliferation of HL-60 cells; type: cell-based, human; details: RPMI medium, incubated for two days
Experimental: as §1

[6] = tested on: HBV infections; details: treatment of HBV infections; cited from earlier work
[7] = HepG2 2.2.15 cells, extracellular HBV DNA by PCR, after 9 days of incubation

Nc1ccn([C@@H]2CS[C@H](CO)O2)c(=O)n1 [3TC, β-L-2′,3′-dideoxy-3′-thiacytidine, reference compound]
EC50 ([1]; Hepatitis B virus, 216 h, HepG2 2.2.15 cells, extracellular HBV DNA by PCR, after 9 days of incubation): 0.1 to 0.2 µM

Nc1nc(=O)n([C@H]2C[C@H](O)[C@@H](CO)O2)cc1Cl [CldC, β-L-deoxy-5-chlorocytidine]
effect with respect to HBV replication, as described in the literature [2]: ineffective or sparingly effective

Nc1nc(=O)n([C@H]2C[C@H](O)[C@@H](CO)O2)cc1F [FdC, β-L-deoxy-5-fluorocytidine]
effect with respect to HBV replication, as described in the literature [2]: less effective

Nc1nc(=O)n(C2OC(CO)C=C2F)cc1F [L-2′F-ddeFC, β-L-2′,3′-dideoxy-2′,3′-didehydro-2′-fluoro-5-fluorocytidine]
effect with respect to HBV replication, as described in the literature [2]: equally effective

Nc1nc(=O)n([C@H]2O[C@@H](CO)[C@H](O)[C@H]2O)cc1F [L-AraFC, β-L-arabinofuranosyl-5-fluorocytosine]
effect with respect to HBV replication, as described in the literature [2]: no effect

Nc1nc(=O)n([C@H]2O[C@@H](CO)[C@H](O)[C@H]2F)cc1Br [L-FABrC, β-L-2′-fluoroarabinofuranosyl-5-bromocytosine]
effect with respect to HBV replication, as described in the literature [2]: ineffective or sparingly effective

Nc1nc(=O)n([C@H]2O[C@@H](CO)[C@H](O)[C@H]2F)cc1Cl [L-FAC1C, β-L-2′-fluoroarabinofuranosyl-5-chlorocytidine]
effect with respect to HBV replication, as described in the literature [2]: ineffective or sparingly effective

Nc1nc(=O)n([C@H]2O[C@@H](CO)[C@H](O)[C@H]2F)cc1F [L-FAFC, β-L-2′-fluoroarabinofuranosyl-5-fluorocytosine]
effect with respect to HBV replication, as described in the literature [2]: no effect

Nc1nc(=O)n([C@H]2CC[C@@H](CO)O2)cc1F [L-FddC, β-L-2′,3′-dideoxy-5-fluorocytidine]
effect with respect to HBV replication, as described in the literature [2]: equally effective

Nc1nc(=O)n([C@@H]2C=C[C@H](CO)O2)cc1F [L-FddeC, β-L-2′,3′-dideoxy-2′,3′-didehydro-5-fluorocytidine]
effect with respect to HBV replication, as described in the literature [2]: more effective

Nc1ccn([C@@H]2CS[C@H](COP(=O)(O)OP(=O)(O)OP(=O)(O)O)O2)c(=O)n1 [Triphosphate of 3TC, reference compound]
IC50 [3]: 0.3 µM

Cc1cn([C@H]2O[C@@H](COP(=O)(O)OP(=O)(O)OP(=O)(O)O)[C@H](O)[C@H]2O)c(=O)nc1N [Triphosphate of β-L-AraMetC]
IC50 [3]: 10.8 µM

Cc1cn([C@@H]2C[C@@H](O)[C@H](COP(=O)(O)OP(=O)(O)OP(=O)(O)O)O2)c(=O)nc1N [Triphosphate of β-L-MetCdR]
IC50 [3]: 0.9 µM

Cc1cn([C@@H]2C[C@@H](N=[N+]=[N-])[C@H](COP(=O)(O)OP(=O)(O)OP(=O)(O)O)O2)c(=O)nc1N [Triphosphate of β-L-N3MetCdR]
IC50 [3]: 0.8 µM

Cc1cn([C@@H]2CC[C@H](COP(=O)(O)OP(=O)(O)OP(=O)(O)O)O2)c(=O)nc1N [Triphosphate of β-L-ddMetCdR]
IC50 [3]: 6.5 µM

Cc1cn([C@@H]2C=C[C@H](COP(=O)(O)OP(=O)(O)OP(=O)(O)O)O2)c(=O)nc1N [Triphosphate of β-L-ddeMetCdR]
IC50 [3]: 6.2 µM

Cc1cn([C@@H]2C[C@@H](F)[C@H](CO)O2)c(=O)nc1N [β-L-2′,3′-dideoxy-3′-fluoro-5-methylcytidine]
effect with respect to HBV replication, as described in the literature [2]: ineffective or sparingly effective

Nc1nc(=O)n(C2CSC(CO)O2)cc1Br [β-L-2′,3′-dideoxy-3′-thia-5-bromocytidine]
effect with respect to HBV replication, as described in the literature [2]: ineffective or sparingly effective

Nc1nc(=O)n(C2CSC(CO)O2)cc1Cl [β-L-2′,3′-dideoxy-3′-thia-5-chlorocytidine]
effect with respect to HBV replication, as described in the literature [2]: ineffective or sparingly effective

Cc1cn(C2CSC(CO)O2)c(=O)nc1N [β-L-2′,3′-dideoxy-3′-thia-5-methylcytidine]
effect with respect to HBV replication, as described in the literature [2]: ineffective or sparingly effective

Cc1cn([C@H]2O[C@@H](CO)[C@H](O)[C@H]2O)c(=O)nc1N [β-L-AraMetC, 1-β-L-arabinofuranosyl-5-methylcytosine]
Cytotoxicity (CD50), concentration resulting in 50% inhibition of proliferation [4]: >2000 | Cytotoxicity (CD50), concentration resulting in 50% inhibition of proliferation [5]: >2000 | EC50 ([1]; Hepatitis B virus, HepG2 2.2.15, 216 h): > 20 µM

Cc1cn([C@@H]2C[C@@H](O)[C@H](CO)O2)c(=O)nc1N [β-L-MetCdR, β-L-5-methyldeoxycytidine]
Cytotoxicity (CD50), concentration resulting in 50% inhibition of proliferation [4]: >2000 | Cytotoxicity (CD50), concentration resulting in 50% inhibition of proliferation [5]: >2000 | EC50 [1, 7]: 0.27 to 0.6 µM

Cc1cn([C@@H]2C[C@@H](N=[N+]=[N-])[C@H](CO)O2)c(=O)nc1N [β-L-N3MetCdR, β-L-3′-azido-2′,3′-dideoxy-5-methylcytidine]
Cytotoxicity (CD50), concentration resulting in 50% inhibition of proliferation [4]: >2000 | Cytotoxicity (CD50), concentration resulting in 50% inhibition of proliferation [5]: 2000 | EC50 [1, 7]: 0.35 to 0.95 µM

Cc1cn([C@@H]2CC[C@H](CO)O2)c(=O)nc1N [β-L-ddMetC, β-L-2′,3′-dideoxy-5-methylcytidine]
EC50 [1, 7]: > 20 µM

Cc1cn([C@@H]2C=C[C@H](CO)O2)c(=O)nc1N [β-L-ddeMetC, β-L-2′,3′-didehydro-2′,3′-dideoxy-5-methylcytidine]
Cytotoxicity (CD50), concentration resulting in 50% inhibition of proliferation [4]: 1500 | Cytotoxicity (CD50), concentration resulting in 50% inhibition of proliferation [5]: 600 | EC50 [1, 7]: > 20 µM

α-interferon
proportion of the patients in whom it is effective [6]: about 33%
